Test results from patent publication US5977386A, “6-thio-substituted paclitaxels” (Bristol-Myers Squibb Company, priority 1997, dated 1999).
Like-named read-outs stand apart in the source and are kept apart here.

Assays:
M5076 murine sarcoma = assay: sc M5076 murine sarcoma model, tumor growth delay; assay type: in vivo; settings: sc M5076, iv on days 1, 3, 5, 7, and 9 post-implant, at optimal dose
Protocol: M5076: Taxane derivatives were tested in the M5076 murine sarcoma model using the general materials and methods described by Rose, W. C. in Anticancer Research 6: 557-562, 1986, for subcutaneous M5076 implants, with the following modifications: treatments were administered intravenously on Days 1, 3, 5, 7, and 9 post-tumor implant using eight mice per treatment and untreated control group. Activity was determined based on an increase in lifespan (as described in the preceding reference) of […], and, in particular, on a delay in tumor growth equivalent to at least 1 gross log cell kill (LCK). The latter was calculated as described in Rose, W. C. and Basler, G. A. in In Vivo 4: 391-396, 1990.
(§1) ^a Optimal dose (mg/kg/inj) if active, otherwise, maximal tolerated
(§2) dose (MTD) or highest dose tested.

M109 lung carcinoma = assay: Mice M109 Model (In-Vivo), ip M109 lung carcinoma, median survival; set-up: species or system mouse; settings: ip M109, Balb/c×DBA/2 F1 mice, ip injections days 5 and 8 post-implant, at optimal dose
Protocol: Balb/c×DBA/2 F1 hybrid mice were implanted intraperitoneally, as described by William Rose in Evaluation of Madison 109 Lung Carcinoma as a Model for Screening Antitumor Drugs, Cancer Treatment Reports, 65, No. 3-4 (1981), with 0.5 mL of a 2% (w/v) brei of M109 lung carcinoma.
Mice were treated with compounds under study by receiving intraperitoneal injections of various doses on days 5 and 8 post-implant. Mice were followed daily for survival until approximately 75 days post-tumor implant. One group of mice per experiment remained untreated and served as the control group.
Median survival times of compound-treated (T) mice were compared to the median survival time of the control (C) mice. The ratio of the two values for each compound-treated group of mice was multiplied by 100 and expressed as a percentage (i.e. % T/C) in the following Table II for representative compounds.
as §1, §2

[1] = tested on: HCT-116 human colon carcinoma cells; assay: MTS cytotoxicity assay (72 h exposure); assay type: cell-based
Protocol: Cytoxicity was assessed in HCT-116 human colon carcinoma cells by MTS (3-(4,5-dimethylthiazol-2-yl)-5-(3-carboxymethoxyphenyl)-2-(4-sulphenyl)-2H-tetrazolium, inner salt) assay as reported in T. L. Riss, et. al., "Comparison of MTT, XTT, and a novel tetrazolium compound MTS for in vitro proliferation and chemosensitivity assays.," Mol. Biol. Cell 3 (Suppl.):184a, 1992. Cells were plated at 4,000 cell/well in 96 well microtiter plates and 24 hours later drugs were added and serial diluted. The cells were incubated at 37° for 72 hours at which time the tetrazolium dye, MTS at 333 μg/ml (final concentration), in combination with the electron coupling agent phenazine methosulfate at 25 μM (final concentration) was added. A dehydrogenase enzyme in live cells reduces the MTS to a form that absorbs light at […] which can be quantitated spectrophotometrically. The greater the absorbance the greater the number of live cells. The results are expressed as an IC50, which is the drug concentration required to inhibit cell proliferation (i.e. absorbance at 450 nm) to 50% of that of untreated control cells. The IC50 values for compounds evaluated in this assay are evaluated in Table I.
^1 Cytotoxicity was determined after a 72 h exposure by MTS assay.

[2] = Homo sapiens, HCT-116, 72 h, read-out: Cytotoxicity Assay IC50 against HCT 116 Human colon tumor cell line
[3] = Homo sapiens, HCT-116, read-out: Cytotoxicity Assay IC50 against HCT 116 Human colon tumor cell line

SMILES	Maximum T-C in LCK (gross log cell kill) (M5076 murine sarcoma)	Maximum % T/C (ratio of median survival times treated/control x 100) (M109 lung carcinoma)	IC50 ([1]; 4320 min, read-out: Cytotoxicity Assay IC50 against HCT 116 Human colon tumor cell line)	IC50 [1, 2]	IC50 [1, 3]
CC(=O)O[C@H]1C(=O)[C@]2(C)C[C@@H]([S+](C)[O-])[C@H]3OC[C@@]3(OC(C)=O)[C@H]2[C@H](OC(=O)c2ccccc2)[C@]2(O)C[C@H](OC(=O)[C@H](O)[C@@H](NC(=O)c3ccccc3)c3ccccc3)C(C)=C1C2(C)C (single isomer, unassigned) [Compound 19, 7-deoxy-6β-methyl sulfoxide-paclitaxel]	0.4 LCK	169%	50.9 nM	–	–
CC(=O)O[C@H]1C(=O)[C@]2(C)C[C@@H](SC#N)[C@H]3OC[C@@]3(OC(C)=O)[C@H]2[C@H](OC(=O)c2ccccc2)[C@]2(O)C[C@H](OC(=O)[C@H](O)[C@@H](NC(=O)c3ccccc3)c3ccccc3)C(C)=C1C2(C)C [Compound 17, 7-deoxy-6β-thiocyanato-paclitaxel]	0.7 LCK	194%	–	3.8 nM	–
CC(=O)O[C@H]1C(=O)[C@]2(C)C[C@@H](S(C)(=O)=O)[C@H]3OC[C@@]3(OC(C)=O)[C@H]2[C@H](OC(=O)c2ccccc2)[C@]2(O)C[C@H](OC(=O)[C@H](O)[C@@H](NC(=O)c3ccccc3)c3ccccc3)C(C)=C1C2(C)C [Compound 21, 7-deoxy6β-methyl sulfone-paclitaxel]	0 LCK	147%	–	–	> 109 nM
CC(=O)O[C@H]1C(=O)[C@]2(C)C[C@@H](Sc3ccccc3)[C@H]3OC[C@@]3(OC(C)=O)[C@H]2[C@H](OC(=O)c2ccccc2)[C@]2(O)C[C@H](OC(=O)[C@H](O)[C@@H](NC(=O)c3ccccc3)c3ccccc3)C(C)=C1C2(C)C [Compound 52, 6b-thiophenyl-7-deoxy-paclitaxel]	–	114%	–	0.58 nM	–
CC(=O)O[C@H]1C(=O)[C@]2(C)C[C@@H](Sc3cccs3)[C@H]3OC[C@@]3(OC(C)=O)[C@H]2[C@H](OC(=O)c2ccccc2)[C@]2(O)C[C@H](OC(=O)[C@H](O)[C@@H](NC(=O)c3ccccc3)c3ccccc3)C(C)=C1C2(C)C [Compound 54, 6-b-thio-(2-thienyl)-7-deoxypaclitaxel]	–	148%	–	1.1 nM	–
CC(=O)O[C@H]1C(=O)[C@]2(C)C[C@@H](SCC(=O)O)[C@H]3OC[C@@]3(OC(C)=O)[C@H]2[C@H](OC(=O)c2ccccc2)[C@]2(O)C[C@H](OC(=O)[C@H](O)[C@@H](NC(=O)c3ccccc3)c3ccccc3)C(C)=C1C2(C)C [Compound 55]	–	107%	–	–	> 108 nM
